Laboratory results taken from ChEMBL document CHEMBL1156962, “Evaluation of retro-inverso modifications of HTLV-1 protease inhibitors containing a hydroxyethylamine isoster” (Bioorg Med Chem, 2010).

Experiment: Inhibition of HTLV1 protease assessed as decrease in substrate concentration by HPLC analysis
Design: species or system Human T-cell leukemia virus type I

Compound	IC50
CC[C@H](C)[C@@H](NC[C@H](O)[C@@H](CC(C)C)NC(=O)[C@H]1CCCN1C(C)=O)C(=O)N[C@@H](C(=O)N1CCC[C@@H]1C(N)=O)C(C)C	> 10000 µM
CC[C@@H](C)[C@@H](NC(=O)[C@@H](CC(C)C)[C@@H](O)C[C@H]1CCCN1C(=O)NCc1ccccc1)C(=O)N[C@@H](C(=O)N1CCC[C@@H]1C(=O)N1CCC[C@@H]1C(N)=O)C(C)C	550 µM
CC[C@H](C)[C@@H](NC[C@H](O)[C@@H](CC(C)C)NC(C)=O)C(=O)N[C@@H](C(=O)N1CCC[C@@H]1C(N)=O)C(C)C	> 10000 µM

More lines, in order of falling IC50, values ahead:

IC50	Compound
1500 µM	CC[C@@H](C)[C@@H](NC(=O)[C@H](CC(C)C)[C@@H](O)C[C@H]1CCCN1C(=O)NCc1ccccc1)C(=O)N[C@@H](C(=O)N1CCC[C@@H]1C(=O)N1CCC[C@@H]1C(N)=O)C(C)C
350 µM	CC[C@@H](C)[C@@H](NC(=O)[C@H](CC(C)C)[C@H](O)C[C@H]1CCCN1C(=O)NCc1ccccc1)C(=O)N[C@@H](C(=O)N1CCC[C@@H]1C(=O)N1CCC[C@@H]1C(N)=O)C(C)C
160 µM	CC[C@@H](C)[C@@H](NC(=O)[C@@H](CC(C)C)[C@H](O)C[C@H]1CCCN1C(=O)NCc1ccccc1)C(=O)N[C@@H](C(=O)N1CCC[C@@H]1C(=O)N1CCC[C@@H]1C(N)=O)C(C)C
